pIC50: −log10 of the molar value. Read-outs that look alike come from different tables or passages of the source.
Key:
[1] = target: T1, Recombinant STAT3 protein (STAT3 (G127-I722)) (Homo sapiens, UniProt P40763); test: STAT3 Fluorescence Polarization (FP) Assay; assay type: binding; settings: probe 5-FAM-GpYLPQTV-NH2 2 nM, 45-minute incubation
T1 construct: Recombinant STAT3 protein (STAT3 (G127-I722))
In short: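 Read-out is fluorescence polarization (mP) after 45 min at room temperature, with IC50 fitted by nonlinear regression against log compound concentration. Mixture: 25 nM STAT3 (G127-I722), 2 nM 5-FAM-GpYLPQTV-NH2 phosphopeptide, 10 mM HEPES pH 7.4 buffer, 1% DMSO.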

[2] = target: T2, Recombinant STAT6 protein (STAT6 (W123-T658)) (Homo sapiens, UniProt P42226); test: STAT6 Fluorescence Polarization (FP) Assay; assay type: binding; settings: probe 5-FAM-Ap[…]-NH2 2 nM, 45-minute incubation
T2 construct: Recombinant STAT6 protein (STAT6 (W123-T658))
T2 sequence (P42226 123-658): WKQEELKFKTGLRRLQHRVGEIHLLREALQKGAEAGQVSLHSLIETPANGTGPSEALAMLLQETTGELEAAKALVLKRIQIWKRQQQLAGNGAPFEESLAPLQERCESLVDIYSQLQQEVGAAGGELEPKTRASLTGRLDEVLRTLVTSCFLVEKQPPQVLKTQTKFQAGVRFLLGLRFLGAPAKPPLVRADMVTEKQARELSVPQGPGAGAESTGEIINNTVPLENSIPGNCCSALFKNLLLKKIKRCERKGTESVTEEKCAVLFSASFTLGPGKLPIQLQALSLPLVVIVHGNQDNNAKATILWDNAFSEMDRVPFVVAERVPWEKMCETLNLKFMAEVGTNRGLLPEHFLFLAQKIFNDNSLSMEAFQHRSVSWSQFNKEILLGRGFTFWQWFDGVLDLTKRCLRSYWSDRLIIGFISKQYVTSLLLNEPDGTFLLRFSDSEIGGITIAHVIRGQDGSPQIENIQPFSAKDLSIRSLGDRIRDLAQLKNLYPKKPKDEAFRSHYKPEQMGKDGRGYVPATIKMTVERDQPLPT
In short: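 STAT6 (W123-T658) at 250 nM was mixed with 2 nM 5-FAM-labeled phosphotyrosine peptide probe in HEPES pH 7.4 buffer with NaCl, EDTA, Tween 20 and DTT, then added to serially diluted compounds at 1% DMSO final. Polarization was read after 45 min at room temperature; IC50 came from nonlinear regression of mP versus log concentration.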

[3] = STAT3 25 nM, read-out: STAT3 (FP assay IC50)
[4] = STAT6 250 nM, read-out: STAT6 (FP assay IC50)
[5] = STAT3 (G127-I722) 25 nM, read-out: STAT3 (FP assay IC50 class)
[6] = STAT6 (W123-T658) 250 nM, read-out: STAT6 (FP assay IC50 class)

T1 sequence (P40763 127-722): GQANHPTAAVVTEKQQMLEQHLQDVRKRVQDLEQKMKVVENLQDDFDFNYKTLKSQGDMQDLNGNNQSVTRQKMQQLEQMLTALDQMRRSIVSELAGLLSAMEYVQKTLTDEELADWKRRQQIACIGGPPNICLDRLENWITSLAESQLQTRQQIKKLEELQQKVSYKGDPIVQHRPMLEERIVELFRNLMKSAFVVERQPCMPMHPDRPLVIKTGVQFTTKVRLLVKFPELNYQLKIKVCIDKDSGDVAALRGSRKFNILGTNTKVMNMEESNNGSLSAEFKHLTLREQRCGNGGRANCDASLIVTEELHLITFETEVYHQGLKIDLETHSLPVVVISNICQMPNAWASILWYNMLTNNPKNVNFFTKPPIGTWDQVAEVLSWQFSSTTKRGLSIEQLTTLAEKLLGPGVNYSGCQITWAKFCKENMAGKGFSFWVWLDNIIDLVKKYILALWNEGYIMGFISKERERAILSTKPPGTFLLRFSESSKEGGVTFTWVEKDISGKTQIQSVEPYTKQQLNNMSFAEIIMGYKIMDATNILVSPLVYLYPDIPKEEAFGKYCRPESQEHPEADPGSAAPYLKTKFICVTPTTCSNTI

| pIC50 [1, 3] | pIC50 [2, 4] | pIC50 [1, 5] | pIC50 [2, 6] | Structure (SMILES) |
| --- | --- | --- | --- | --- |
| 6.00 to 7.00 | 4.52 to 5.52 |  |  | O=C(N[C@H]1CCC[C@H]2CC[C@@H](C(=O)N3CC(C4CCOCC4)C3)N2C1=O)c1cc2cc(C(F)(F)P(=O)(O)O)ccc2s1 [Compound 119, (difluoro(2-(((3S,6S,9aS)-5-oxo-3-(3-(tetrahydro-2H-pyran-4-yl)azetidine-1-carbonyl)octahydro-1H-pyrrolo[1,2-a]azepin-6-yl)carbamoyl)benzo[b]thiophen-5-yl)methyl) phosphonic acid] |
|  |  | 6.00 to 7.00 | 4.52 to 5.52 | CN1CCN(c2ccncc2C2CN(C(=O)[C@@H]3CC[C@@H]4CCC[C@H](NC(=O)c5cc6cc([C@@H](F)P(=O)(O)O)ccc6s5)C(=O)N43)C2)C1=O [Compound 851, ((S)-fluoro(2-(((3S,6S,9aS)-3-(3-(4-(3-methyl-2-oxoimidazolidin-1-yl)pyridin-3-yl)azetidine-1-carbonyl)-5-oxooctahydro-1H-pyrrolo[1,2-a]azepin-6-yl)carbamoyl)benzo [b]thiophen-5-yl)methyl) phosphonic acid] |
|  |  | 6.00 to 7.00 | 4.52 to 5.52 | Cn1ccc(C2CN(C(=O)[C@@H]3CC[C@@H]4CCC[C@H](NC(=O)c5cc6cc([C@@H](F)P(=O)(O)O)ccc6s5)C(=O)N43)C2)cc1=O (single isomer, unassigned) [Compound 708] |
|  |  | 5.00 to 6.00 | 5.52 to 6.52 | CC1(C)C[C@@H](c2ccccc2)CN1C(=O)[C@@H]1CC[C@@H]2CCCC[C@H](NC(=O)c3cc4cc(C(F)(F)P(=O)(O)O)ccc4s3)C(=O)N21 [Compound 814, ((2-(((3S,6S,10aS)-3-((S)-2,2-dimethyl-4-phenylpyrrolidine-1-carbonyl)-5-oxodecahydropyrrolo [1,2-a]azocin-6-yl)carbamoyl)benzo [b]thiophen-5-yl)difluoromethyl) phosphonic acid] |
|  |  | 5.00 to 6.00 | 5.52 to 6.52 | N#C[C@@H]1CN(C(=O)[C@@H]2CC[C@@H]3CCC[C@H](NC(=O)c4cc5cc(C(F)P(=O)(O)O)ccc5s4)C(=O)N32)C[C@H]1c1ccccc1 (single isomer, unassigned) [Compound 232] |
|  |  | 5.00 to 6.00 | ≥ 6.52 | COc1ncccc1[C@@H]1CN(C(=O)[C@@H]2CC[C@@H]3CCCC[C@H](NC(=O)c4cc5cc(C(F)P(=O)(O)O)ccc5s4)C(=O)N32)C[C@H]1C#N (relative stereo) [Compound 230, ((2-(((3S,6S,10aS)-3-((rel-trans)-3-cyano-4-(2-methoxypyridin-3-yl)pyrrolidine-1-carbonyl)-5-oxodecahydropyrrolo[1,2-a]azocin-6-yl)carbamoyl)benzo[b]thiophen-5-yl)fluoromethyl)phosphonic acid] |
|  |  | 5.00 to 6.00 | 4.52 to 5.52 | COc1cc(C)c(C2CN(C(=O)[C@@H]3CC[C@@H]4CCC[C@H](NC(=O)c5cc6cc(CP(=O)(O)O)ccc6s5)C(=O)N43)C2)cn1 [Compound 511, ((2-(((3S,6S,9aS)-3-(3-(6-methoxy-4-methylpyridin-3-yl)azetidine-1-carbonyl)-5-oxooctahydro-1H-pyrrolo[1,2-a]azepin-6-yl)carbamoyl)benzo[b]thiophen-5-yl)methyl)phosphonic acid] |
|  |  | 6.00 to 7.00 | 5.52 to 6.52 | O=C(N[C@H]1CCCC[C@H]2CC[C@@H](C(=O)N3CCC(c4cccnc4)C3)N2C1=O)c1cc2cc(C(F)P(=O)(O)O)ccc2s1 (stereo partly drawn) [Compound 223, (fluoro(2-(((3S,6S,10aS)-5-oxo-3-(3-(pyridin-3-yl)pyrrolidine-1-carbonyl)decahydropyrrolo[1,2-a]azocin-6-yl)carbamoyl)benzo[b]thiophen-5-yl)methyl)phosphonic acid] |
|  |  | 5.00 to 6.00 | ≥ 6.52 | O=C(N[C@H]1CCCC[C@H]2CC[C@@H](C(=O)N3CC(c4ccccc4)CC34CC4)N2C1=O)c1ccc2ccc(C(F)(F)P(=O)(O)O)cc2c1 (stereo partly drawn) [Compound 880, (difluoro(7-(((3S,6S,10aS)-5-oxo-3-(6-phenyl-4-azaspiro[2.4]heptane-4-carbonyl)decahydropyrrolo[1,2-a]azocin-6-yl)carbamoyl)naphthalen-2-yl)methyl) phosphonic acid] |
|  |  | 6.00 to 7.00 | 4.52 to 5.52 | O=C(N[C@H]1CCC[C@H]2CC[C@@H](C(=O)N3CC(c4nccc(C(F)(F)F)n4)C3)N2C1=O)c1cc2cc(C(F)(F)P(=O)(O)O)ccc2s1 [Compound 812, (difluoro(2-(((3S,6S,9aS)-5-oxo-3-(3-(4-(trifluoromethyl)pyrimidin-2-yl)azetidine-1-carbonyl)octahydro-1H-pyrrolo[1,2-a]azepin-6-yl)carbamoyl)benzo [b]thiophen-5-yl)methyl) phosphonic acid] |
| 6.00 to 7.00 | ≥ 6.52 |  |  | N#C[C@@H]1CN(C(=O)[C@@H]2CC[C@@H]3CCCC[C@H](NC(=O)c4cc5cc(C(F)(F)P(=O)(O)O)ccc5s4)C(=O)N32)C[C@H]1c1ccccc1 (relative stereo) [Compound 95, ((2-(((3S,6S,10aS)-3-(rel-(trans)-3-cyano-4-phenylpyrrolidine-1-carbonyl)-5-oxodecahydropyrrolo [1,2-a]azocin-6-yl)carbamoyl)benzo[b]thiophen-5-yl)difluoromethyl) phosphonic acid] |
|  |  | > 7.00 | 5.52 to 6.52 | COC1CN(c2ccncc2C2CN(C(=O)[C@@H]3CC[C@@H]4CCC[C@H](NC(=O)c5cc6cc([C@@H](F)P(=O)(O)O)ccc6s5)C(=O)N43)C2)C1 [Compound 859, ((S)-fluoro(2-(((3S,6S,9aS)-3-(3-(4-(3-methoxyazetidin-1-yl)pyridin-3-yl)azetidine-1-carbonyl)-5-oxooctahydro-1H-pyrrolo[1,2-a]azepin-6-yl)carbamoyl)benzo [b]thiophen-5-yl)methyl) phosphonic acid] |
|  |  | 5.00 to 6.00 | 4.52 to 5.52 | O=C(N[C@H]1CC[C@H]2CC[C@@H](C(=O)N3CC(n4ccnc4)C3)N2C1=O)c1cc2cc(C(F)(F)P(=O)(O)O)ccc2s1 [Compound 732, ((2-(((3S,6S,8aS)-3-(3-(1H-imidazol-1-yl)azetidine-1-carbonyl)-5-oxooctahydro-indolizin-6-yl)carbamoyl)benzo [b]thiophen-5-yl)difluoromethyl) phosphonic acid] |
|  |  | 6.00 to 7.00 | 4.52 to 5.52 | O=C(N[C@H]1CCCC[C@H]2CC[C@@H](C(=O)NCc3cnc4[nH]ncc4c3)N2C1=O)c1cc2cc(C(F)(F)P(=O)(O)O)ccc2s1 [Compound 1108, ((2-(((3S,6S,10aS)-3-(((1H-pyrazolo[3,4-b]pyridin-5-yl)methyl)carbamoyl)-5-oxodecahydropyrrolo[1,2-a]azocin-6-yl)carbamoyl)benzo[b]thiophen-5-yl)difluoromethyl)phosphonic acid] |
|  |  | 5.00 to 6.00 | 4.52 to 5.52 | Cn1c(C2CN(C(=O)[C@@H]3CC[C@@H]4CCCC[C@H](NC(=O)c5cc6cc(CP(=O)(O)O)ccc6s5)C(=O)N43)C2)nc2ccccc21 [Compound 662, ((2-(((3S,6S,10aS)-3-(3-(1-methyl-1H-benzo[d]imidazol-2-yl)azetidine-1-carbonyl)-5-oxodecahydropyrrolo [1,2-a]azocin-6-yl)carbamoyl)benzo [b]thiophen-5-yl)methyl) phosphonic acid] |
|  |  | 5.00 to 6.00 | 4.52 to 5.52 | O=C(N[C@H]1CCCC[C@H]2CC[C@@H](C(=O)N3CCC(c4cccnc4)C3)N2C1=O)c1cc2cc(CP(=O)(O)O)ccc2s1 (stereo partly drawn) [Compound 509, ((2-(((3S,6S,10aS)-5-oxo-3-(3-(pyridin-3-yl)pyrrolidine-1-carbonyl)decahydropyrrolo[1,2-a]azocin-6-yl)carbamoyl)benzo[b]thiophen-5-yl)methyl)phosphonic acid] |
|  |  | > 7.00 | 5.52 to 6.52 | O=C(N[C@H]1CCCC[C@H]2CC[C@@H](C(=O)NCc3cnc4[nH]cnc4c3)N2C1=O)c1cc2cc(C(F)(F)P(=O)(O)O)ccc2s1 [Compound 1112, ((2-(((3S,6S,10aS)-3-(((3H-imidazo[4,5-b]pyridin-6-yl)methyl)carbamoyl)-5-oxodecahydropyrrolo[1,2-a]azocin-6-yl)carbamoyl)benzo[b]thiophen-5-yl)difluoromethyl)phosphonic acid] |
|  |  | 6.00 to 7.00 | 4.52 to 5.52 | CC(C)OC1(c2nncn2C)CN(C(=O)[C@@H]2CC[C@@H]3CCC[C@H](NC(=O)c4cc5cc(C(F)(F)P(=O)(O)O)ccc5s4)C(=O)N32)C1 [Compound 823, (difluoro(2-(((3S,6S,9aS)-3-(3-isopropoxy-3-(4-methyl-4H-1,2,4-triazol-3-yl)azetidine-1-carbonyl)-5-oxooctahydro-1H-pyrrolo[1,2-a]azepin-6-yl)carbamoyl)benzo [b]thiophen-5-yl)methyl) phosphonic acid] |
